Laboratory results reported in ChEMBL document CHEMBL5506048, “Modular Biomimetic Strategy Enables Discovery and SAR Exploration of Oxime Macrocycles as Influenza A Virus (H1N1) Inhibitors” (J Med Chem, 2024).
Activity calls are given as the source filed them. The calls are words filed in the database; no cut-off is given here.

Experiments:
Influenza A virus [1] = test: Antiviral activity against Influenza virus H1N1 A/Puerto Rico/8/34 (A/PR/8/34) infected in human Calu-3 cells assessed as viral RNA measured after 3 days by one-time real time PCR assay; assay type: functional, organism-based
Calu-3 = test: Cytotoxicity against human Calu-3 cells assessed as cell viability measured after 3 days by CellTiter-Lumi Steady Plus Luminescent Cell Viability Assay Kit; assay type: functional; settings: Calu-3, 72 h, time 3 day
[2] = Selectivity index, ratio of CC50 for human Calu-3 cells to EC50 for antiviral activity against Influenza virus HINI A/Puerto Rico/8/34 (A/PR/8/34); assay type: toxicity; settings: read-out: Selectivity Index
Influenza A virus [3] = test: Antiviral activity against Influenza virus H1N1 A/Puerto Rico/8/34 (A/PR/8/34) infected in human Calu-3 cells assessed as viral RNA at CC50 concentration for human Calu-3 cells measured after 3 days by one-time real time PCR assay; assay type: functional, organism-based; settings: time 3.0 day
Influenza A virus [4] = test: Antiviral activity against HIV pseudotyped H1N1 HA infected in human 293T cells assessed as inhibition of viral entry into cells by measuring intensity of chemiluminescence measured after 3 days by Bright-Glo luciferase assay; assay type: functional, organism-based; settings: HEK293T, time 3.0 day
Influenza A virus [5] = test: Antiviral activity against HIV pseudotyped H5N1 HA infected in human 293T cells assessed as inhibition of viral entry into cells by measuring intensity of chemiluminescence measured after 3 days by Bright-Glo luciferase assay; assay type: functional, organism-based; settings: HEK293T, time 3.0 day
Ebolavirus = test: Antiviral activity against HIV pseudotyped EBOV GP infected in human 293T cells assessed as inhibition of viral entry into cells by measuring intensity of chemiluminescence measured after 3 days by Bright-Glo luciferase assay; assay type: functional, organism-based; settings: HEK293T, time 3.0 day
Influenza A virus [6] = test: Antiviral activity against Influenza virus HIN1 (A/California/07/2009 pdm09) infected in human Calu-3 cells assessed as viral RNA measured after 3 days by one-time real time PCR assay; assay type: functional, organism-based; settings: Calu-3, 72 h
Influenza A virus [7] = test: Antiviral activity against Influenza virus H3N2 (A/Hong Kong/8/68) infected in human Calu-3 cells assessed as viral RNA measured after 3 days by one-time real time PCR assay; assay type: functional, organism-based; settings: Calu-3, 72 h
Influenza B virus = test: Antiviral activity against Influenza virus Flu B (B/Taiwan/2/62) infected in human Calu-3 cells assessed as viral RNA measured after 3 days by one-time real time PCR assay; assay type: functional, organism-based; settings: B/Taiwan/2/62, Calu-3, 72 h

| Compound | EC50 (Influenza A virus [1]; Calu-3, 72 h) [µM] | CC50 (Calu-3) [µM] | selectivity ratio [2] | EC90 (Influenza A virus [1]; Calu-3, 72 h, time 3 day) [µM] | Activity (Influenza A virus [3]) | further results |
| --- | --- | --- | --- | --- | --- | --- |
| C=C1Cc2cc(C(F)(F)F)ccc2C(=O)NCC(C)(C)/C(=N/O)CCCCOC1=O | 57.3 | > 100 | > 1.7 |  |  | EC90 (Influenza A virus [1]; time 3.0 day): inactive |
| C=C1Cc2ccccc2C(=O)NCC(C)(C)/C(=N/OC)CCCOC1=O | 0.985 | > 100 | > 101 | 18.3 |  |  |
| C=C1Cc2cc(C(F)(F)F)ccc2C(=O)NCC(C)(C)/C(=N/OC)CCCCCCOC1=O |  | 15.6 |  |  | inactive |  |
| C=C1Cc2cc(C(F)(F)F)ccc2C(=O)NCC(C)(C)C(=O)CCCCOC1=O |  | > 100 |  |  | inactive |  |
| C=C1Cc2cc(C(F)(F)F)ccc2C(=O)NCC2(CCC2)/C(=N/OC)CC[C@H](C)OC1=O | 0.22 | 67.3 | 305 | 0.68 |  |  |
| C=C1Cc2cc(C(F)(F)F)ccc2C(=O)NCC(C)(C)/C(=N/OC)CCC(C)OC1=O (stereo unspecified) | 0.096 | > 100 | > 1040 | 0.823 |  |  |
| CO/N=C1\CCCCOC(=O)C(CSCCC(=O)O)Cc2cc(C(F)(F)F)ccc2C(=O)NCC1(C)C (stereo unspecified) |  | > 100 |  |  | inactive |  |
| C=C1Cc2cc(C(F)(F)F)ccc2C(=O)NCC(C)(C)/C(=N/OC)CCC(CNCCO)OC1=O (stereo unspecified) |  | > 100 |  |  | inactive |  |
| CCC(CC)Oc1ccc(/C=C2\Cc3cc(C(F)(F)F)ccc3C(=O)NCC(C)(C)/C(=N/OC)CCCCOC2=O)cc1 |  | > 100 |  |  | inactive |  |
| C=C1Cc2cc(C(F)(F)F)ccc2C(=O)NCC(C)(C)/C(=N/OC)CCCOC1=O | 0.441 | > 100 | > 226 | 0.56 |  |  |
| C=C1Cc2cc(NC(C)=O)ccc2C(=O)NCC(C)(C)/C(=N/OC)CCCOC1=O | 2.69 | > 100 | > 37 | 5.06 |  |  |
| C=C(Cc1cc(C(F)(F)F)ccc1C(=O)NCC(C)(C)/C(CCCO)=N/OC)C(=O)O |  | > 100 |  |  | inactive |  |
| C=C1Cc2cc(F)ccc2C(=O)NCC(C)(C)/C(=N/OC)CCCOC1=O | 1.65 | > 100 | > 60 | 1.98 |  |  |
| C=C1Cc2cc(C(F)(F)F)ccc2C(=O)NCC(C)(C)/C(=N/OC)CCOC1=O |  | > 100 |  |  | inactive |  |
| C=C1Cc2cc(C(F)(F)F)ccc2C(=O)NCC(C)(C)/C(=N/OC(C)C)CCC(C)OC1=O (stereo unspecified) |  | 36.6 |  |  | inactive |  |
| C=C1Cc2cc(C(F)(F)F)ccc2C(=O)NCC(C)(C)/C(=N/OC)CCCCCOC1=O |  | 40.7 |  |  | inactive |  |
| C=C1Cc2cc(C(F)(F)F)ccc2C(=O)NCC(C)(C)/C(=N/OC)CCCCOC1=O | 2.3 | > 100 | > 43 | 46.5 |  |  |
| C=C1Cc2cc(C(F)(F)F)ccc2C(=O)NCC(C)(C)/C(=N/OC)CCC(CO)OC1=O (stereo unspecified) | 20.2 | > 100 | > 4 | > 100 |  |  |
| C=C1Cc2cc(C(F)(F)F)ccc2C(=O)NCC(C)(C)/C(=N/OC)CCC(c2ccc(F)cc2)OC1=O (stereo unspecified) |  | 27.3 |  |  | inactive |  |

| Compound | EC50 (Influenza A virus [1]; Calu-3, 72 h) [µM] | CC50 (Calu-3) [µM] | selectivity ratio [2] | EC90 (Influenza A virus [1]; Calu-3, 72 h, time 3 day) [µM] | Activity (Influenza A virus [3]) | further results |
| --- | --- | --- | --- | --- | --- | --- |
| C=C1Cc2ccc(C(F)(F)F)cc2C(=O)NCC(C)(C)/C(=N/OC)CCCOC1=O | 0.264 | 73.6 | 278 | 1.05 |  |  |
| C=C1Cc2cc(OC)ccc2C(=O)NCC(C)(C)/C(=N/OC)CCCOC1=O | 1.05 | > 100 | > 95 | 3.55 |  |  |
| C=C1Cc2cc(C(F)(F)F)ccc2C(=O)NCC(C)/C(=N/OC)CCCOC1=O (stereo unspecified) |  | > 100 |  |  | inactive |  |
| C=C1Cc2cc(C(F)(F)F)ccc2C(=O)NCC(C)(C)/C(=N/OC(CC)CC)CCC(C)OC1=O (stereo unspecified) |  | 31.9 |  |  | inactive |  |
| C=C1Cc2cc(C(F)(F)F)ccc2C(=O)NCC(C)(C)/C(=N/OCC23C[C@H]4C[C@@H](C2)C[C@@H](C3)C4)CCC(C)OC1=O (stereo partly specified) |  | 47 |  |  | inactive |  |
| C=C1Cc2cc(C(F)(F)F)ccc2C(=O)NCC(C)(C)/C(=N/OC)CCC(CC)OC1=O (stereo unspecified) |  | 42.4 |  |  | inactive |  |
| C=C1Cc2cc(C(F)(F)F)ccc2C(=O)NCC(C)(C)/C(=N/OC)CC[C@@H](C)OC1=O | 1.47 | 26.5 | 18 | > 100 |  |  |
| C=C1Cc2cc(C(F)(F)F)ccc2C(=O)NCC(C)(C)/C(=N/OC)CCC(CN2CCOCC2)OC1=O (stereo unspecified) |  | > 100 |  |  | inactive |  |
| C=C1Cc2cc(C(F)(F)F)ccc2C(=O)NCC(C)(C)/C(=N/OC)CCC(C(=O)O)OC1=O (stereo unspecified) |  | > 100 |  |  | inactive |  |
| C=C1Cc2cc(C(F)(F)F)ccc2C(=O)NCC2(CC2)/C(=N/OC)CCCOC1=O | 0.247 | > 100 | > 404 | 1.23 |  |  |
| C=C1Cc2cc(C(F)(F)F)ccc2C(=O)NCC(C)(C)/C(=N/OCC(F)(F)F)CCCOC1=O | 0.428 | > 100 | > 233 | 1.87 |  |  |
| CO/N=C1\CCCCOC(=O)/C(=C/c2ccc(F)cc2)Cc2cc(C(F)(F)F)ccc2C(=O)NCC1(C)C |  | > 100 |  |  | inactive |  |
| C=C1Cc2cc(C(F)(F)F)ccc2C(=O)NCC(C)(C)/C(=N/OC)CC[C@H](C)OC1=O | 0.013 | 90.4 | 6950 | 0.235 |  | Activity (Influenza A virus [4]): Dose-Dependent Effect; Activity (Influenza A virus [5]): inactive; Activity (Ebolavirus): inactive; EC50 (Influenza A virus [6]): 0.048 µM; EC50 (Influenza A virus [7]): > 50 µM; EC50 (Influenza B virus): > 50 µM |
| C=C1Cc2cc(C(F)(F)F)ccc2C(=O)NCC(C)(C)/C(=N/OC)CCC(C2CC2)OC1=O (stereo unspecified) |  | 42.9 |  |  | inactive |  |
| C=C1Cc2cc(N3CCOCC3)ccc2C(=O)NCC(C)(C)/C(=N/OC)CCCOC1=O | 17.9 | > 100 | > 8 |  |  | EC90 (Influenza A virus [1]; time 3.0 day): inactive |
| CO/N=C1\CCCOC(=O)C(C)Cc2cc(C(F)(F)F)ccc2C(=O)NCC1(C)C (stereo unspecified) | 2.74 | > 100 | > 36 | > 100 |  |  |
| C=C1Cc2cc(C(F)(F)F)ccc2C(=O)NCC(C)(C)/C(=N/OC)CCCNC1=O | 0.657 | > 100 | > 152 | 1.39 |  |  |
| CO/N=C1\CCCCOC(=O)/C(=C/c2ccc(N3CCOCC3)cc2)Cc2cc(C(F)(F)F)ccc2C(=O)NCC1(C)C |  | > 100 |  |  | inactive |  |
